From patent US20230371512A1, “FUNGICIDAL COMPOSITIONS” (SYNGENTA CROP PROTECTION AG, priority 2020, published 2023)

How the values were obtained:
[1] = test system: Mycosphaerella arachidis Syn. Cercospora arachidicola; assay: Mycosphaerella arachidis liquid culture growth inhibition (microtiter plate, PDB, photometric); assay type: cell-based; settings: read-out: Observed Activity (%); for inhibition at 10 ppm: single compound 10 ppm; for inhibition at 20 ppm: single compound 20 ppm; for inhibition at 0.625 ppm: single compound 0.625 ppm; for inhibition at 1.25 ppm: single compound 1.25 ppm; for inhibition at 2.5 ppm: single compound 2.5 ppm; for inhibition at 5 ppm: single compound 5 ppm
Procedure: Mycosphaerella arachidis Syn. Cercospora arachidicola (Brown Leaf Spot of Peanut): Conidia of the fungus from cryogenic storage were directly mixed into nutrient broth (PDB potato dextrose broth). A DMSO solution of the test compounds was placed into a microtiter plate (96-well format) and the nutrient broth containing the fungal spores was added to it. The test plates were incubated at 24° C. and the inhibition of growth was determined photometrically after 5-6 days at 620 nm.

Septoria Glycines = assay: Septoria glycines liquid culture growth inhibition (microtiter plate, PDB, visual); assay type: cell-based; settings: read-out: Observed Activity (%)
Procedure: (§1) Septoria Glycines (Brown Spot): Conidia of the fungus from cryogenic storage were directly mixed into nutrient broth (PDB potato dextrose broth). A DMSO solution of the test compounds was placed into a microtiter plate (96-well format) and the nutrient broth containing the fungal spores was added to it.

Phakopsora pachyrhizi = Phakopsora pachyrhizi soybean rust, treated plants / leaf disk test; assay type: in vivo; settings: foliar, read-out: Observed Activity (%); for inhibition at 15 g/ha: single compound 15 g/ha
Procedure: Phakopsora pachyrhizi (Soybean Rust):
Whole soybean plants are treated with the recited active ingredients 4 weeks after planting. 1 day after spraying leaf disks are cut from the first trifoliate leaf. Five repetitions at each rate are conducted. The leaf disks are inoculated with Phakopsora pachyrhizi (Asian soybean rust) one day after treatment. Evaluation of the leaf disks is conducted 11 to 14 days after inoculation and the activity is derived from the relation of the treated vs untreated, infested check. The rates of the active ingredients used are given in Table as g active ingredient (a.i.)/ha.

Septoria tritici = Septoria tritici liquid culture growth inhibition (microtiter plate, PDB, photometric); assay type: cell-based; settings: Zymoseptoria tritici, read-out: Observed Activity (%)
Procedure: as §1, with “tritici (Leaf Blotch):” for “Glycines (Brown Spot):”

For `CNC(=O)C(F)(F)c1ccc(-c2noc(C(F)(F)F)n2)cc1` [2,2-difluoro-N-methyl-2-[4-[5-(trifluoromethyl)-1,2,4-oxadiazol-3-yl]phenyl]acetamide], the inhibition at 10 ppm [1] was 20% and the inhibition at 20 ppm [1] was 50%.
Molecule `N#Cc1ccc(Oc2ccc(C(F)(F)C(O)(Cn3nc[nH]c3=S)c3ccc(F)cc3F)nc2)cc1` (stereo not drawn) [4-[[6-[2-(2,4-Difluorophenyl)-1,1-difluoro-2-hydroxy-3-(5-thioxo-4H-1,2,4-triazol-1-yl)propyl]-3-pyridyl]oxy]benzonitrile] has an inhibition at 0.25 ppm (Septoria Glycines; single compound 0.25 ppm) of 20% and an inhibition at 0.5 ppm (Septoria Glycines; single compound 0.5 ppm) of 20%.
`Cc1cc(C2=NC(C)(C)C(F)(F)c3ccccc32)cnc1C` [Compound A-1.1, 1-(5,6-dimethyl-3-pyridyl)-4,4-difluoro-3,3-dimethyl-isoquinoline] gave an inhibition at 0.625 ppm [1] of 0%, an inhibition at 1.25 ppm [1] of 0% and an inhibition at 2.5 ppm [1] of 0%. It also gave an inhibition at 5 ppm [1] of 0%, an inhibition at 10 ppm [1] of 0% and an inhibition at 20 ppm [1] of 20%. For the same molecule, the inhibition at 15 g/ha (Phakopsora pachyrhizi) was 2%, the inhibition at 30 g/ha (Phakopsora pachyrhizi; single compound 30 g/ha) was 4% and the inhibition at 5 ppm (Septoria Glycines; single compound 5 ppm) was 0%. The inhibition at 10 ppm (Septoria Glycines; single compound 10 ppm) was 20%, the inhibition at 20 ppm (Septoria Glycines; single compound 20 ppm) was 50% and the inhibition at 1.25 ppm (Septoria tritici; single compound 1.25 ppm) was 0%. For the same molecule, the inhibition at 2.5 ppm (Septoria tritici; single compound 2.5 ppm) was 0%, the inhibition at 5 ppm (Septoria tritici; single compound 5 ppm) was 20% and the inhibition at 10 ppm (Septoria tritici; single compound 10 ppm) was 50%. It also gave an inhibition at 20 ppm (Septoria tritici; single compound 20 ppm) of 70%.
`Cc1cc(C2=NC(C)(C)C(F)(F)c3ccccc32)cnc1C(F)F` [Compound A-1.2, 1-[6-(difluoromethyl)-5-methyl-3-pyridyl]-4,4-difluoro-3,3-dimethyl-isoquinoline] showed an inhibition at 0.625 ppm [1] of 0%, an inhibition at 1.25 ppm [1] of 0% and an inhibition at 2.5 ppm [1] of 0%. The inhibition at 5 ppm [1] was 0%, the inhibition at 10 ppm [1] was 20% and the inhibition at 20 ppm [1] was 50%. For the same molecule, the inhibition at 15 g/ha (Phakopsora pachyrhizi) was 12%.
`O=C(Nc1ccccc1F)c1ccc(-c2noc(C(F)(F)F)n2)cc1` [N-(2-fluorophenyl)-4-[5-(trifluoromethyl)-1,2,4-oxadiazol-3-yl]benzamide] gave an inhibition at 0.75 g/ha (Phakopsora pachyrhizi; single compound 0.75 g/ha) of 27% and an inhibition at 1.5 g/ha (Phakopsora pachyrhizi; single compound 1.5 g/ha) of 45%.
Molecule `CNC(=S)c1ccc(-c2noc(C(F)(F)F)n2)cc1` [N-methyl-4-[5-(trifluoromethyl)-1,2,4-oxadiazol-3-yl]benzenecarbothioamide] has an inhibition at 3 ppm ([1]; single compound 3 ppm) of 70%, an inhibition at 6 ppm ([1]; single compound 6 ppm) of 90% and an inhibition at 6 ppm (Septoria tritici; single compound 6 ppm) of 50%.
With `CCN(C)C=Nc1cc(C)c(Oc2ccccc2F)cc1Cl` [N′-[2-chloro-4-(2-fluorophenoxy)-5-methyl-phenyl]-N-ethyl-N-methyl-formamidine] the inhibition at 1 ppm ([1]; single compound 1 ppm) was 70%, the inhibition at 2 ppm ([1]; single compound 2 ppm) was 90% and the inhibition at 1 g/ha (Phakopsora pachyrhizi; single compound 1 g/ha) was 4%. It also gave an inhibition at 2 g/ha (Phakopsora pachyrhizi; single compound 2 g/ha) of 13%.
